Each block holds one compound with its values, some of them ahead of it. Activity calls are given as the source filed them. No cut-off for these calls is given here.
Key:
[1] = target: T1, DNA topoisomerase 1 (Homo sapiens) (UniProt P11387); experiment: Relative activity against DNA topoisomerase I was measured at concentration of 83 uM to that of camptothecin; Active, 10 fold less than camptothecin
T1 sequence (whole entry): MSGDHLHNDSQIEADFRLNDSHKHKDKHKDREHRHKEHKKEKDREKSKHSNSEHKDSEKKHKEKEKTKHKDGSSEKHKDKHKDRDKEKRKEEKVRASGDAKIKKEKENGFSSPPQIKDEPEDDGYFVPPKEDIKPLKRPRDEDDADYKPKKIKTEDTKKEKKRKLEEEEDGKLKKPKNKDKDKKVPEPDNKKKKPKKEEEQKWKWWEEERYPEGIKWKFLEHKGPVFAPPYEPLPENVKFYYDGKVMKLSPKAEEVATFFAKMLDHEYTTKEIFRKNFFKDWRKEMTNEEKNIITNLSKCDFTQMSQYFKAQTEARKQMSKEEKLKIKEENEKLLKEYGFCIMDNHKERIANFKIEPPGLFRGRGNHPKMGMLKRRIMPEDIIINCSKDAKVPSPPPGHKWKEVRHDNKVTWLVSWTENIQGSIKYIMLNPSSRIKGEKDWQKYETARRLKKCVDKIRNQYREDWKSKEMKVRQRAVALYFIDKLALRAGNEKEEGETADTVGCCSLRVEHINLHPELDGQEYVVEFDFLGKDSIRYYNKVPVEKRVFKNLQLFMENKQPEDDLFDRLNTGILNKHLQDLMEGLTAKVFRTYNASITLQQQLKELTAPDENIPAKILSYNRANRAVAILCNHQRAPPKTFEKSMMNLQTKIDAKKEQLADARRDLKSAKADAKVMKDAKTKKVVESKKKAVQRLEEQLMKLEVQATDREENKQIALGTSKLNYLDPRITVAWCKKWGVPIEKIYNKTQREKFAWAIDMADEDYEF

[2] = target: T1, DNA topoisomerase 1 (Homo sapiens); experiment: Relative activity against Topoisomerase I was measured at concentration of 25 uM to that of camptothecin; Inactive
[3] = target: T1, DNA topoisomerase 1 (Homo sapiens); experiment: Relative activity against DNA topoisomerase I was measured at concentration of 833 uM to that of camptothecin; Inactive
[4] = target: T1, DNA topoisomerase 1 (Homo sapiens); experiment: Relative activity against DNA topoisomerase I was measured at concentration of 625 uM to that of camptothecin; Inactive
[5] = target: T1, DNA topoisomerase 1 (Homo sapiens); experiment: Relative activity against DNA topoisomerase I was measured at concentration of 12 uM to that of camptothecin
[6] = target: T1, DNA topoisomerase 1 (Homo sapiens); experiment: Relative activity against Topoisomerase I was measured at concentration of 360 uM to that of camptothecin; Active, 35 fold less than camptothecin
[7] = target: T1, DNA topoisomerase 1 (Homo sapiens); experiment: Relative activity against DNA topoisomerase I was measured at concentration of 200 uM to that of camptothecin; Inactive
[8] = target: T1, DNA topoisomerase 1 (Homo sapiens); experiment: Relative activity against DNA topoisomerase I was measured at concentration of 554 uM to that of camptothecin; Active, 50 fold less than camptothecin
[9] = target: T1, DNA topoisomerase 1 (Homo sapiens); experiment: Relative activity against DNA topoisomerase I was measured at concentration of 277 uM to that of camptothecin; inactive
[10] = target: T1, DNA topoisomerase 1 (Homo sapiens); experiment: Relative activity against DNA topoisomerase I was measured at concentration of 166 uM to that of camptothecin; Inactive

Compound: CCC1C(=O)OCc2c1cc1n(c2=O)Cc2ccccc2-1 (configuration not stated)
- Relative activity [1]: Active
- Relative activity [2]: inactive

Compound: CCC1C(=O)OCc2c1c(C(=O)OC)c1n(c2=O)Cc2ccccc2-1 (configuration not stated)
- Relative activity [5]: inactive
- Relative activity [6]: Active

Compound: CCC(C(=O)OC)c1cc2n(c(=O)c1)Cc1cc3ccccc3nc1-2 (configuration not stated)
- Relative activity [7]: inactive

Compound: COC(=O)Cc1cc2n(c(=O)c1)Cc1cc3ccccc3nc1-2
- Relative activity [8]: Active
- Relative activity [9]: inactive

Next, values leading:

- Relative activity [3]: inactive
Compound: COC(=O)Cc1cc(=O)n2c(c1C(=O)OC)C1Cc3ccccc3CC1C2 (configuration not stated)

- Relative activity [3]: inactive
Compound: CCC(C(=O)OC)c1cc(=O)n2c(c1C(=O)OC)C1Cc3ccccc3CC1C2 (configuration not stated)

- Relative activity [3]: inactive
Compound: CCC1C(=O)OCc2c1c(C(=O)OC)c1n(c2=O)CC2Cc3ccccc3CC12 (configuration not stated)

- Relative activity [4]: inactive
Compound: CCC(C(=O)OC)c1cc(=O)n2c(c1C(=O)OC)-c1nc3ccccc3cc1C2 (configuration not stated)

- Relative activity [10]: inactive
Compound: COC(=O)Cc1cc(=O)n2c(c1C(=O)OC)-c1nc3ccccc3cc1C2

Source: ChEMBL document CHEMBL1126256, “Structural modifications of camptothecin and effects on topoisomerase I inhibition” (J Med Chem, 1992)
